Tests used:
hCoV-OC43 = assay: Antiviral focus-forming reduction assay (FFRA) in HCT-8 cells; format: cell-based, human coronavirus OC43
Protocol: After virus adsorption (2 h at 33 °C), the infected cell cultures were incubated in medium containing the corresponding compounds plus 1% (w/v) methylcellulose (Merck) and 1% (v/v) FBS. […] Viral foci were microscopically counted, and the mean plaque counts for each drug concentration was converted in viral titer (PFU/mL).

[1] = Cytotoxicity assay (CellTiter-Glo); format: cell-based, human; settings: human, HCT-8 cells (uninfected), uninfected HCT-8 cells
Protocol: (§1) After 72 h of incubation, the number of viable cells was determined using the CellTiter-Glo Luminescent assay (Promega, Milan, Italy). The cytotoxicity of the tested compounds was expressed as cytotoxic concentration (CC50).

HCT-8 cells [2] = assay: Cytotoxicity assay (CellTiter-Glo); format: cell-based, human; settings: uninfected HCT-8 cells, 72 h
Protocol: as §1

THP-1 cells = assay: Confocal fluorescence microscopy and Red-MitoTracker co-localization; format: cell-based, human; settings: 10 μM, 24 h
Protocol: Thus, compounds 11a and 14 were subsequently examined in the context of living cells to determine whether they retained their fluorescence profile after entry into target cells. First, both compounds were incubated for 24 h with THP-1 cells at a concentration of 10 μM. After washing with PBS buffer, cells were analyzed under confocal microscopy using an appropriate laser stimulation (λex: 405 nm, λem: […]) to excite the molecules.
(§2) Co-localization experiments were performed to examine whether compound 11a may reach the cellular compartment where hDHODH is located. For this, a specific mitochondrial stain marker in the two cell lines in which the biological activities of 11a were observed, namely THP-1 and HCT-8 cells, was used. The compound was therefore incubated with THP-1 cells (Figure ) or HTC-8 cells (Figure ) at 37 °C for 24 h. Then, cells were stained with Red-MitoTracker (a specific fluorescent probe for mitochondrial targeting) for 30 min at 37 °C.
(§3) For fluorescence analysis, 10 μM of target compounds were incubated with THP-1 for 24 h. After washing the cells with a PBS buffer solution, they were analyzed under confocal microscopy imaging technique using the appropriate laser to excite the molecule. For the colocalization experiments, HCT-8 cells (55,000 cells/well) were plated on μ-Slide 8 well high glass bottom (IBIDI, Gräfelfing, Germany) and treated for 24 h with 10 μM of 11a at 37 °C. Then, cells were stained with MitoTracker Red CMXRos (ThermoFischer, Carlsbad, CA, USA) (1:4000) for 30′ at 37 °C and after washing with PBS buffer solution, cells were visualized with a Leica TCS SP5 multiphoton-inverted confocal microscope equipped with LAS AF matrix software. Live cells were imaged using an HCX PL APO 63×/1.4 NA oil immersion objective. Images were collected with excitation of ligand 11a at λex = 405 nm and emission at λem = 500 nm, Red-MitoTracker at λex = 581 nm and emission at λem = 605 nm.

HCT-8 cells [3] = assay: Confocal Red-MitoTracker co-localization; format: cell-based, human; settings: 10 μM, 24 h
Protocol: as §2
as §3, with “Images were collected with excitation of ligand 11a at λex = 405 nm and emission at λem = 500 nm, Red-MitoTracker at λex = 581 nm and emission at λem = 605 nm.” left out

Structure (SMILES): Oc1nn2ccccc2c1/C=C/c1c(F)c(F)c(-c2ccccc2)c(F)c1F [Compound 11a, (E)-3-(2-(2,3,5,6-Tetrafluoro-[1,1’-biphenyl]-4-yl)vinyl)pyrazolo[1,5-a]pyridin-2-ol]
- EC50 (hCoV-OC43; Betacoronavirus 1, OC43, HCT-8, 72 h, read-out: EC50, concentration inhibiting 50% of virus replication, hCoV-OC43, FFRA in HCT-8 cells, 72 h p.i., full treatment): 2.3 ± 0.5 µM
- EC90 (hCoV-OC43; Betacoronavirus 1, OC43, HCT-8, 72 h, read-out: EC90, concentration inhibiting 90% of virus replication): 23.3 ± 0.4 µM
- SI, Selectivity Index (ratio of CC50 to EC50) (hCoV-OC43; HCT-8 CC50 / hCoV-OC43 EC50): 131
- CC50 at 72 h [1]: 301 ± 9 µM
- CC50 (HCT-8 cells [2]): 301 ± 8.97 µM
- intracellular localization (THP-1 cells; THP-1): localize in the cytosol
- fluorescence in living cells (THP-1 cells; THP-1, λex 405 nm): recovered a strong fluorescence
- co-localization with Red-MitoTracker (THP-1 cells; THP-1 cells): localize into mitochondria
- co-localization with Red-MitoTracker (HCT-8 cells [3]): localize into mitochondria

From paper PMC12257544, “Fluorescent Isostere (Fluostere) of the Carboxylate: Design of hDHODH Fluorescent Inhibitors as Proof of Concept” (Journal of Medicinal Chemistry, 2025)
